Measurements reported in patent US7671019B2, “3-deoxyglucosone and skin” (Dynamis Therapeutics, Inc., priority 2002, dated 2010).
Several values for one entry are separate records, joined by “and”; a condition that tells them apart may be missing. Equal entries are not always repeated. Values belong to the compound of their own block, whether it stands above or below them.

Key:
[1] = target: T1, Calf skin collagen Type 1 (Bos taurus, UniProt P02453+P02465); assay: 3DG-induced collagen crosslinking, CNBr digestion and SDS-PAGE; format: biochemical; conditions: 37° C., 24 hours
T1 construct: Calf skin collagen Type 1 (1.3 mg; Sigma); purchased Sigma; host or cells: calf skin (tissue-derived)
T1 sequence (P02453 162-1217 limits assumed): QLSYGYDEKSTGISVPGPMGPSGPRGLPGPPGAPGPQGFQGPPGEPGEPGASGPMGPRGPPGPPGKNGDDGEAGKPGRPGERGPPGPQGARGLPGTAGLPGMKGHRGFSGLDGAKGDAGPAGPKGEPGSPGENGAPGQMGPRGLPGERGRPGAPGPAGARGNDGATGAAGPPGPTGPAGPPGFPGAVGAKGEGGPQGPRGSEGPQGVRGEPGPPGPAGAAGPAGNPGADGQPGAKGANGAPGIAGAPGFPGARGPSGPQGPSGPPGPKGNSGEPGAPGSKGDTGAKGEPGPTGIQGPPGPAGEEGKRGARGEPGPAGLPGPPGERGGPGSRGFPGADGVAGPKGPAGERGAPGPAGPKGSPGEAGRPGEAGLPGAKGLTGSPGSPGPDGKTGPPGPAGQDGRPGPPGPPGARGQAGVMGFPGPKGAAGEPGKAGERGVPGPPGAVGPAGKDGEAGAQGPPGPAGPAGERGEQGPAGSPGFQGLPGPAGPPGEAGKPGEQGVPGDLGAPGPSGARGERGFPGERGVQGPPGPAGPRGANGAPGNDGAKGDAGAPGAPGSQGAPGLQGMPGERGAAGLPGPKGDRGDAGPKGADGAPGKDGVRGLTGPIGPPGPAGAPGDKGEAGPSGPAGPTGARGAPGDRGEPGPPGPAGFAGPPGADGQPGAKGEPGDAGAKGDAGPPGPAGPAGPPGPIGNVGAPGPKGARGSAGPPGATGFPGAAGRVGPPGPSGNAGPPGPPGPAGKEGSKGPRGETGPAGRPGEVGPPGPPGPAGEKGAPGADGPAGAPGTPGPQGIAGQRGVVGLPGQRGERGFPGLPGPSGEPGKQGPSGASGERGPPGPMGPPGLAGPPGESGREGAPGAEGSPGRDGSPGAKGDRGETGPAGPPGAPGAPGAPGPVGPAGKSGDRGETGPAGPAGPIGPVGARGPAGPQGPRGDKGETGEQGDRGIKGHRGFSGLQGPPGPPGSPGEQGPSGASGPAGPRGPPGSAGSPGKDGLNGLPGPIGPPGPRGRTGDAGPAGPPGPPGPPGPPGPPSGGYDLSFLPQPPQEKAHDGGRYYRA
T1 sequence (P02465 80-1117 limits assumed): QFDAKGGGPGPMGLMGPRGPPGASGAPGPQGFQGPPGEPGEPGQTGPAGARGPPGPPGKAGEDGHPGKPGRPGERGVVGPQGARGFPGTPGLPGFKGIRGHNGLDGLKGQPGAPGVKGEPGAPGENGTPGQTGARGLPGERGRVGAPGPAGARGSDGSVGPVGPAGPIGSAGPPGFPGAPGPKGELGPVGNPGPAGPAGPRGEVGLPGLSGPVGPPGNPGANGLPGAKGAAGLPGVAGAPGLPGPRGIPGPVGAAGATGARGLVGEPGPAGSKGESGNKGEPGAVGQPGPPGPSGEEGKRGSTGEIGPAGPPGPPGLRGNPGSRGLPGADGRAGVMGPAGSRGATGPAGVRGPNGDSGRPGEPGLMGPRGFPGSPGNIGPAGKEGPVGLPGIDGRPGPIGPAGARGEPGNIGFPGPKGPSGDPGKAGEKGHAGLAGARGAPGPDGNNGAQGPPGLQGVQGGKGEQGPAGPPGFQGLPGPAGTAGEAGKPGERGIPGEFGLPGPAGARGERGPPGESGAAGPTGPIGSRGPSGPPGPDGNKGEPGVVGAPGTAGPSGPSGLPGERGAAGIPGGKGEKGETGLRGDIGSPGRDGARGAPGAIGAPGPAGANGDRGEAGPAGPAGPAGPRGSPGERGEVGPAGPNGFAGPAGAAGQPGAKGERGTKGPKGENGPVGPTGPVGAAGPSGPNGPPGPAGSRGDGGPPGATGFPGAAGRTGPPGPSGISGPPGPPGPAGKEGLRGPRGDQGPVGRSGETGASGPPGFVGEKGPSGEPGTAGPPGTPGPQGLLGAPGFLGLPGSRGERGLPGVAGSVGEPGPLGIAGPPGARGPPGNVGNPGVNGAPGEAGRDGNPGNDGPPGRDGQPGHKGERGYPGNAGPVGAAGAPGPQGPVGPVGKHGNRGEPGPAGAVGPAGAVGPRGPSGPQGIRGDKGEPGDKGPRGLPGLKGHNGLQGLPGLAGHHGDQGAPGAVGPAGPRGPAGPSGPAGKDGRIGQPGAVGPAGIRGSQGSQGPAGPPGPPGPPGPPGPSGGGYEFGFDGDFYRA
Method: Collagen type I was treated with 3DG in the presence or absence of arginine. The samples were subjected to cyanogen bromide (CNBr) digestion, electrophoresed on a 16.5% SDS Tris-tricine gel, and then the gels were processed using silver stain techniques to visualize the proteins. Lane 1 contains molecular weight marker standards. Lanes 2 and 5 contain 10 and 20 μl of the collagen mixture following CNBr digestion. Lanes 3 and 6 contain the collagen mixture treated with 3DG and then digested with CNBr, and loaded at 10 and 20 μl, respectively. Lanes 4 and 7 contain the mixture of collagen incubated with 5 mM 3DG and 10 mM arginine and then digested with CNBr, and loaded at 10 and 20 μl, respectively.
Collagen I was incubated in the presence or absence of 3DG in vitro. Calf skin collagen Type 1 (1.3 mg; Sigma) was incubated in 20 mM Na-phosphate buffer, pH 7.25, either alone, with 5 mM 3DG, or with 5 mM 3DG plus 10 mM arginine, in a total volume of 1 ml at 37° C. for 24 hours and then frozen and lyophilized. The residue was dissolved in 0.5 ml of 70% formic acid and cyanogen bromide was added (20:1, w/w). This solution was incubated at 30° C. for 18 hours. […] The extent of collagen crosslinking was determined by applying equal volumes of sample and analyzing by SDS-PAGE electrophoresis (16.5% Tris-tricine gel), as determined by the effects of 3DG on the migration of collagen.

[2] = tested on: 3DG; assay: Plasma 3DG levels in diabetic and non-diabetic rats treated with 3-O-methyl sorbitollysine; format: in vivo; conditions: 50 mg/kg injections, within one week
Method: A cohort of twelve diabetic rats was divided into two groups of six. The first group received saline-only injections, and the second received injections of 3-O-methyl sorbitollysine (50 mg/kg body weight) in saline solution. The same procedure was conducted on a cohort of twelve non-diabetic rats.

[3] = Locus of 3-O-methyl sorbitollysine uptake in vivo (tissue, urine, plasma analysis); design: species or system rats
Method: Six rats were injected intraperitoneally with […] (4.4 mg) of 3-O-methyl sorbitollysine. Urine was collected for 3 hours, after which the rats were sacrificed. The tissues to be analyzed were removed and freeze clamped in liquid nitrogen. Perchloric acid extracts of the tissues were used for metabolite analysis. The tissues examined were taken from the brain, heart, muscle, sciatic nerve, spleen, pancreas, liver, and kidney. Plasma was also analyzed.

[4] = Skin elasticity (vacuum pull needed to displace skin) in STZ-diabetic and normal rats; format: in vivo; conditions: 50 mg/kg daily subcutaneous, eight weeks
Method: Experiments were performed to determine the effects of DYN 12 on the loss of skin elasticity associated with diabetes. To this end, two groups of STZ-diabetic rats and two groups of normal rats were subjected to treatment with DYN 12 or saline. One group of STZ-diabetic rats (n=9) received daily subcutaneous injections of DYN 12 at 50 mg/kg for eight weeks, as did one group of normal rats (n=6). A group of control diabetic rats (n=10) and a group of normal rats (n=6) received saline instead of DYN 12. One rat was removed from the diabetic DYN 12 group after 2 weeks because its blood glucose readings were inconsistent (too low) with other diabetic rats.
A non-invasive procedure based on CyberDERM, Inc. technology utilizing a skin elasticity measurement device was used to test the effects of DYN 12 treatment on skin elasticity. The procedure provides for non-invasive measurement of skin elasticity based upon the amount of vacuum pull required to displace skin. A suction cup probe is adhered to an area of shaved skin in order to form an airtight seal. Then, a vacuum is applied to the area of the skin inside the suction cup until the skin is displaced past a sensor located inside the probe. Accordingly, the more pressure that is required to displace the skin, the less elastic the skin is.

[5] = Muscle strength of alert diabetic rats; format: in vivo; conditions: measured while alert, preliminary data
Excerpt: The present invention also encompasses methods for prevention of hair loss associated with or mediated by loss of microcirculation and/or loss of neuro-innervation in populations of aging, sclerodermic and/or in diabetic individuals. This is because 3DG is a known precursor to the formation of AGEs which are known to be causally connected to the development of neuropathy. […] This supports the concept that maintenance of nerve conduction and microcirculation that supports nerve innervation is deleteriously affected not only by AGEs, but also 3DG. Similarly, where 3DG would cause blockage of the microcirculation that supports nerve innervation of the hair follicle, the hair follicle will atrophy and die, as is the case in neuropathy.Accordingly, the present invention includes methods for preventing hair loss, where such hair loss is associated with or mediated by the presence of 3DG in the skin proximal to a hair follicle/shaft.
Skin elasticity measurements were also taken on the test subjects as described above, but without sedating the test animals before measurement. FIG. 15 illustrates skin elasticity measurements taken on the hind leg of the test subjects while the subjects were alert and being restrained by a technician.
In these experiments, the animals were fiercely fighting restraint and the results are different.

[6] = tested on: mouse mesangial cells; assay: Type IV collagen production in kidney cells in vitro; format: cell-based
Method: Type IV collagen production was measured in mouse mesangial cells. Controls (grown with […]) produced 300 ng of Type IV collagen per 10,000 cells, whereas fructoselysine treated cells (5 or 10 mM fructoselysine with 10 mM glucose) produced 560 and 1100 ng/10,000 cells.

[7] = design: species or system rats; conditions: rat, in vivo
Method: Two rats were injected daily with 5 μmols of either FL or mannitol (used as a control) for 5 days. The animals were sacrificed and the kidneys removed and dissected into the cortex and medulla. Tissues were homogenized in 5 volumes of 50 mM Tris-HCl containing 150 mM KCl, 15 mM MgCl2 and 5 mM DTT, pH 7.5. Cellular debris was removed by centrifugation at 10,000×g for 15 minutes, and the supernatant was then centrifuged at 150,000×g for 70 minutes. The soluble proteins were analyzed by SDS PAGE on 12% polyacrylamide gels as well as on 4-15 and 10-20% gradient gels.

[8] = design: species or system human; conditions: in vivo
Method: Volunteers spent two days on a fructoselysine-free diet and then consumed 22.5 g of the food product prepared as described herein, thus effectively receiving a 2 gram dose of fructoselysine. Urine was collected at 2 hour intervals for 14 hours and a final collection was made at 24 hours. FL was measured by HPLC with a Waters 996 diode Array using a Waters C18 Free Amino Acid column at 46° C. and a gradient elution system of acetonitrile-methyl alcohol-water (45:15:40) into acetonitrile-sodium acetate-water (6:2:92) at 1 ml/min. Quantitation employed an internal standard of meglumine. 3DF was measured by HPLC after deionization of the sample. Analyses were performed on a Dionex DX-500 HPLC system employing a PA1 column (Dionex) and eluting with 32 mM sodium hydroxide at 1 ml/min. Quantitation was performed from standard curves obtained daily with synthetic 3DF. 3DG was measured by GC-MS after deionization of the sample. 3DG was derivatized with a 10-fold excess of diaminonaphthalene in PBS. Ethyl acetate extraction gave a salt free fraction which was converted to the trimethyl silyl ethers with Tri-Sil (Pierce). Analysis was performed on a Hewlett-Packard 5890 selected ion monitoring GC-MS system. […] Quantitation of 3DG employed selected ion monitoring using an internal standard of U-13C-3DG.

Structure (SMILES): O=CC(=O)C[C@H](O)[C@H](O)CO [3DG, 3-deoxyglucosone]
- collagen crosslinking (migration on SDS-PAGE) ([1]; 5 mM 3DG): caused the collagen to migrate as if it had a higher molecular weight

- compound contained in plasma ([3]; 3 hours after i.p. injection): plasma did not
Structure (SMILES): COC(C(O)CNCCCCC(N)C(=O)O)C(O)C(O)CO (stereo not drawn) [DYN 12, 3-O-methyl sorbitollysine]
- plasma 3DG level ([2]; Diabetic rats): 0.44 ± 0.10 µM
- plasma 3DG level ([2]; Non-diabetic rats): 0.13 ± 0.02 µM
- % 3OMeSL recovered (injected dose recovered from urine and kidney) ([3]; individual rats, urine plus kidneys, 3 hours, listed as 3OMeSL): 91.5% and 38.8% and 96.4% and 61.2% and 53.0% and 53.3%
- amount of pressure needed to displace the skin [4]: 3.2±1.2 kPA
- muscle strength vs diabetic rats not so treated [5]: stronger muscle strength

Structure (SMILES): N=C(N)NCCC[C@H](N)C(=O)O [arginine]
- inhibition of 3DG induced collagen crosslinking (high molecular weight bands) ([1]; 5 mM 3DG plus 10 mM arginine): fewer high molecular bands

- time of peak 3DF excretion in urine after the FL bolus [8]: about 4 hours
Structure (SMILES): N[C@@H](CCCCNCC(=O)[C@@H](O)[C@H](O)[C@H](O)CO)C(=O)O [fructoselysine, 1-deoxy-1-(e-aminolysine)-fructose]
- Type IV collagen produced ([6]; 5 mM fructoselysine with 10 mM glucose): 560 ng/10,000 cells
- Type IV collagen produced ([6]; 10 mM fructoselysine with 10 mM glucose): 1100 ng/10,000 cells
- soluble kidney proteins on SDS PAGE vs mannitol-injected animal [7]: lower molecular weight bands were missing or visually reduced
